In paper PMC8869731, “KasQ an Epimerase Primes the Biosynthesis of Aminoglycoside Antibiotic Kasugamycin and KasF/H Acetyltransferases Inactivate Its Activity” (Biomedicines, 2022):
Where two headings read alike, the source gives them in different places.

Molecular target: KasQ (Streptomyces kasugaensis, UniProt A0A0K1H2R6)
Experiment: Isothermal titration calorimetry (ITC) of KasQ wild type versus substrates;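 note: titration of 1 mM substrate into 0.1 mM KasQ, 18 injections spaced 120 s, data fitted to a single-site binding model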
Assay type: binding
Conditions: for ∆G / ∆H / ∆S / Kd / n: KasQ wild type; for Kd / n: 25 °C, 50 mM HEPES pH 8.0, 100 mM NaCl; for n: ITC binding stoichiometry
Experimental: ITC analyses were carried out at 25 °C using an ITC200 microcalorimeter (MicroCal Inc., Northampton, MA, USA). […] The titration experiment contains 18 injections (2 μL for a duration of 4 s) and each injection was separated by 120 s. The distilled water was filled in the reference cell throughout all titrations. The cell stirring speed was 1000 rpm. The collected raw data were processed in Origin 7.0 (provided by MicroCal) by a non-linear least square method to a single-site binding model.

KasQ, sequence (A0A0K1H2R6 entry or part of it): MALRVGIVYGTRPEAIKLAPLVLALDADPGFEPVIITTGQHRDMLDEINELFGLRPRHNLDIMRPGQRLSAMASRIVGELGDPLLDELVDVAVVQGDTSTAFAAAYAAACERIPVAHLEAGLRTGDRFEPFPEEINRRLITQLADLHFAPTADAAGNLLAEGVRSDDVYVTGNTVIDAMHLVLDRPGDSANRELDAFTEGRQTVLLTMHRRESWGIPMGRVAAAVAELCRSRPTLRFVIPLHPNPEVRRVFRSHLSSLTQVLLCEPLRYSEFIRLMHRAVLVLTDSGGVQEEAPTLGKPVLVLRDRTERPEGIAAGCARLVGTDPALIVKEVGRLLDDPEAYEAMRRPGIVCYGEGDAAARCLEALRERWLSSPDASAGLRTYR

SMILES	∆G (ITC)	∆H (ITC)	∆S (ITC)	Kd (ITC)	Kd (ITC, listed as AAG)	n	Kd (ITC, read-out: Kd) [µM]	binding affinity versus KasQ relative to UMP, UTP and TTP (ITC, higher than that of the others)
CC(=O)NC1=CO[C@H](CO)[C@@H](O)[C@@H]1O [AAG 2, 2-acetamidoglucal]	NBD	NBD	NBD	NBD	no binding affinity	–	–	–
Nc1ncnc2c1ncn2[C@@H]1O[C@H](COP(=O)(O)OP(=O)(O)O)[C@@H](O)[C@H]1O [ADP]	NBD	NBD	NBD	nor AMP, ADP, ATP, GMP, GDP, or GTP shows detectable binding affinity and NBD	–	–	–	–
Nc1ncnc2c1ncn2[C@@H]1O[C@H](COP(=O)(O)O)[C@@H](O)[C@H]1O [AMP]	NBD	NBD	NBD	nor AMP, ADP, ATP, GMP, GDP, or GTP shows detectable binding affinity and NBD	–	–	–	–
Nc1ncnc2c1ncn2[C@@H]1O[C@H](COP(=O)(O)OP(=O)(O)OP(=O)(O)O)[C@@H](O)[C@H]1O [ATP]	NBD	NBD	NBD	nor AMP, ADP, ATP, GMP, GDP, or GTP shows detectable binding affinity and NBD	–	–	–	–
O=C[C@H](O)[C@@H](O)[C@@H](O)[C@H](O)CO [D-Galactose]	NBD	NBD	NBD	NBD	–	–	–	–
OC[C@H]1OC(O)[C@H](O)[C@@H](O)[C@@H]1O (stereo partly drawn) [D-Glucose]	NBD	NBD	NBD	NBD	–	–	–	–
OC[C@H]1OC(O)[C@@H](O)[C@@H](O)[C@@H]1O (stereo partly drawn) [D-Mannose]	NBD	NBD	NBD	NBD	–	–	–	–
Nc1nc2c(ncn2[C@@H]2O[C@H](COP(=O)(O)OP(=O)(O)OC3O[C@H](CO)[C@@H](O)[C@H](O)[C@H]3O)[C@@H](O)[C@H]2O)c(=O)[nH]1 (some centres unmarked) [GDP-Glc]	NBD	NBD	NBD	NBD	–	–	–	–
Nc1nc2c(ncn2[C@@H]2O[C@H](COP(=O)(O)OP(=O)(O)O[C@H]3O[C@H](CO)[C@@H](O)[C@H](O)[C@@H]3O)[C@@H](O)[C@H]2O)c(=O)[nH]1 [GDP-Man]	NBD	NBD	NBD	NBD	–	–	–	–
Nc1nc2c(ncn2[C@@H]2O[C@H](COP(=O)(O)OP(=O)(O)O)[C@@H](O)[C@H]2O)c(=O)[nH]1 [GDP]	NBD	NBD	NBD	nor AMP, ADP, ATP, GMP, GDP, or GTP shows detectable binding affinity and NBD	–	–	–	–
Nc1nc2c(ncn2[C@@H]2O[C@H](COP(=O)(O)O)[C@@H](O)[C@H]2O)c(=O)[nH]1 [GMP]	NBD	NBD	NBD	nor AMP, ADP, ATP, GMP, GDP, or GTP shows detectable binding affinity and NBD	–	–	–	–
Nc1nc2c(ncn2[C@@H]2O[C@H](COP(=O)(O)OP(=O)(O)OP(=O)(O)O)[C@@H](O)[C@H]2O)c(=O)[nH]1 [GTP]	NBD	NBD	NBD	nor AMP, ADP, ATP, GMP, GDP, or GTP shows detectable binding affinity and NBD	–	–	–	–
O=C(O)[C@H]1OC(O)[C@H](O)[C@@H](O)[C@H]1O (some centres unmarked) [GalA]	NBD	NBD	NBD	NBD	–	–	–	–
CC(=O)N[C@H]1C(O)O[C@H](CO)[C@H](O)[C@@H]1O (some centres unmarked) [GalNAc]	NBD	NBD	NBD	NBD	–	–	–	–
O=C(O)[C@H]1OC(O)[C@H](O)[C@@H](O)[C@@H]1O (some centres unmarked) [GlcA]	NBD	NBD	NBD	NBD	–	–	–	–
CC(=O)N[C@H]1C(O)O[C@H](CO)[C@@H](O)[C@@H]1O (some centres unmarked) [GlcNAc]	NBD	NBD	NBD	NBD	–	–	–	–
N[C@H]1C(O)O[C@H](CO)[C@@H](O)[C@@H]1O (some centres unmarked) [GlcNH2]	NBD	NBD	NBD	NBD	–	–	–	–
Cc1cn([C@H]2C[C@H](O)[C@@H](COP(=O)(O)OP(=O)(O)O[C@H]3O[C@H](CO)[C@@H](O)[C@H](O)[C@H]3O)O2)c(=O)[nH]c1=O [TDP-Glc]	-6.273 ± 0.2773 kcal/mol	-4.568 ± 0.2773 kcal/mol	5.72 cal mol^−1 K^−1	–	–	0.3 ± 0.0	25.1 ± 0.2	–
Cc1cn([C@H]2C[C@H](O)[C@@H](COP(=O)(O)OP(=O)(O)OP(=O)(O)O)O2)c(=O)[nH]c1=O [TTP]	-5.128 ± 1.221 kcal/mol	-7.612 ± 1.221 kcal/mol	−8.33 cal mol^−1 K^−1	–	–	1.1 ± 0.1	174 ± 20.2	–
O=c1ccn([C@@H]2O[C@H](COP(=O)(O)OP(=O)(O)O)[C@@H](O)[C@H]2O)c(=O)[nH]1 [UDP 3]	-6.128 ± 0.5523 kcal/mol	-4.130 ± 0.5523 kcal/mol	6.70 cal mol^−1 K^−1	–	–	1.0 ± 0.0	32.2 ± 6.8	2–5 fold
CC(=O)N[C@H]1[C@@H](OP(=O)(O)OP(=O)(O)OC[C@H]2O[C@@H](n3ccc(=O)[nH]c3=O)[C@H](O)[C@@H]2O)O[C@H](CO)[C@H](O)[C@@H]1O [UDP-GalNAc]	-4.742 ± 1.700 kcal/mol	-3.418 ± 1.700 kcal/mol	4.44 cal mol^−1 K^−1	–	–	1.8 ± 0.4	–	–
O=c1ccn([C@@H]2O[C@H](COP(=O)(O)O)[C@@H](O)[C@H]2O)c(=O)[nH]1 [UMP]	-13.19 ± 1.245 kcal/mol	-9.254 ± 1.245 kcal/mol	–	–	–	1.0 ± 0.0	124 ± 70.9	–
O=c1ccn([C@@H]2O[C@H](COP(=O)(O)OP(=O)(O)OP(=O)(O)O)[C@@H](O)[C@H]2O)c(=O)[nH]1 [UTP]	-5.645 ± 1.340 kcal/mol	-9.104 ± 1.340 kcal/mol	−11.6 cal mol^−1 K^−1	–	–	1.0 ± 0.0	71.4 ± 5.7	–
